By IC50 is commonly meant the point on the concentration scale where inhibition reaches its midpoint. Higher therefore signals a need for much substance.

The test system of the first test is HUVEC. The test is described as follows: Antiproliferative activity against human HUVEC cells after 48 hrs by MTT assay. Type of test: cell-based.
Settings: not given
On the technique in general: Tetrazolium dyes change colour on reduction, which living cells bring about.
For `N#CC1=C(N)Oc2c(c3nc4ccccc4nc3c3ccccc23)C12C(=O)N(Cc1cnnn1-c1ccc(S(N)(=O)=O)cc1)c1ccccc12` (configuration not stated), the IC50 was over 50 µM.
Still for that read-out and setting: under `CCOc1ccc(-n2nncc2CN2C(=O)C3(C(C#N)=C(N)Oc4c3c3nc5ccccc5nc3c3ccccc43)c3ccccc32)cc1` (configuration not stated) stands over 50 µM; under `N#CC1=C(N)Oc2c(N)cc3nc4ccccc4nc3c2C12C(=O)N(Cc1cnnn1-c1ccc([N+](=O)[O-])cc1[N+](=O)[O-])c1ccccc12` (configuration not stated), over 50 µM.
Same read-out and setting: next, `COc1ccccc1-n1nncc1CN1C(=O)C2(C(C#N)=C(N)Oc3c2c2nc4ccccc4nc2c2ccccc32)c2ccccc21` (configuration not stated): over 50 µM.
On to `N#CC1=C(N)Oc2c(c3nc4ccccc4nc3c3ccccc23)C12C(=O)N(Cc1cnnn1-c1ccccc1Br)c1ccccc12` (configuration not stated), for which the IC50 was over 50 µM.
`N#CC1=C(N)Oc2c(c3nc4ccccc4nc3c3ccccc23)C12C(=O)N(Cc1cnnn1-c1ccc(Br)cc1)c1ccccc12` (configuration not stated) displayed an IC50 of over 50 µM.
On the same count and under the same terms, under `N#CC1=C(N)Oc2c(c3nc4ccccc4nc3c3ccccc23)C12C(=O)N(Cc1cnnn1-c1ccc([N+](=O)[O-])cc1)c1ccccc12` (configuration not stated) stands over 50 µM.

The next test has as its system A549. In words: Antiproliferative activity against human A549 cells after 48 hrs by MTT assay. Type of test: functional, cell-based. The settings on record: A549, 48 h.
On to `N#CC1=C(N)Oc2c(c3nc4ccccc4nc3c3ccccc23)C12C(=O)N(Cc1cnnn1-c1ccc(S(N)(=O)=O)cc1)c1ccccc12` (configuration not stated), for which the half-maximal inhibitory concentration (IC50) is over 50 µM.
On the same count and under the same terms, next, `CCOc1ccc(-n2nncc2CN2C(=O)C3(C(C#N)=C(N)Oc4c3c3nc5ccccc5nc3c3ccccc43)c3ccccc32)cc1` (configuration not stated): 25.2 µM; `N#CC1=C(N)Oc2c(N)cc3nc4ccccc4nc3c2C12C(=O)N(Cc1cnnn1-c1ccc([N+](=O)[O-])cc1[N+](=O)[O-])c1ccccc12` (configuration not stated): over 50 µM.
Same read-out and setting: under `COc1ccccc1-n1nncc1CN1C(=O)C2(C(C#N)=C(N)Oc3c2c2nc4ccccc4nc2c2ccccc32)c2ccccc21` (configuration not stated) stands over 50 µM.
Same read-out and setting: next, `N#CC1=C(N)Oc2c(c3nc4ccccc4nc3c3ccccc23)C12C(=O)N(Cc1cnnn1-c1ccccc1Br)c1ccccc12` (configuration not stated): over 50 µM.
In turn, `N#CC1=C(N)Oc2c(c3nc4ccccc4nc3c3ccccc23)C12C(=O)N(Cc1cnnn1-c1ccc(Br)cc1)c1ccccc12` (configuration not stated) displayed an IC50 of 44.3 µM.
Still for that read-out and setting: next, `N#CC1=C(N)Oc2c(c3nc4ccccc4nc3c3ccccc23)C12C(=O)N(Cc1cnnn1-c1ccc([N+](=O)[O-])cc1)c1ccccc12` (configuration not stated): over 50 µM.

The subject of a further test is MCF7. In words: Antiproliferative activity against human MCF7 cells after 48 hrs by MTT assay. It counts as functional, cell-based. The settings on record: MCF7, 48 h.
Regarding `N#CC1=C(N)Oc2c(c3nc4ccccc4nc3c3ccccc23)C12C(=O)N(Cc1cnnn1-c1ccc(S(N)(=O)=O)cc1)c1ccccc12` (configuration not stated), the IC50 was over 50 µM.
With `CCOc1ccc(-n2nncc2CN2C(=O)C3(C(C#N)=C(N)Oc4c3c3nc5ccccc5nc3c3ccccc43)c3ccccc32)cc1` (configuration not stated), the IC50 was over 50 µM.
Still for that read-out and setting: next, `N#CC1=C(N)Oc2c(N)cc3nc4ccccc4nc3c2C12C(=O)N(Cc1cnnn1-c1ccc([N+](=O)[O-])cc1[N+](=O)[O-])c1ccccc12` (configuration not stated): 20.9 µM.
Same read-out and setting: under `COc1ccccc1-n1nncc1CN1C(=O)C2(C(C#N)=C(N)Oc3c2c2nc4ccccc4nc2c2ccccc32)c2ccccc21` (configuration not stated) stands over 50 µM.
Same read-out and setting: next, `N#CC1=C(N)Oc2c(c3nc4ccccc4nc3c3ccccc23)C12C(=O)N(Cc1cnnn1-c1ccccc1Br)c1ccccc12` (configuration not stated): over 50 µM; `N#CC1=C(N)Oc2c(c3nc4ccccc4nc3c3ccccc23)C12C(=O)N(Cc1cnnn1-c1ccc(Br)cc1)c1ccccc12` (configuration not stated): 36.6 µM; `N#CC1=C(N)Oc2c(c3nc4ccccc4nc3c3ccccc23)C12C(=O)N(Cc1cnnn1-c1ccc([N+](=O)[O-])cc1)c1ccccc12` (configuration not stated): over 50 µM.

In a further test the test system is HCT-116. In words: Antiproliferative activity against human HCT116 cells after 48 hrs by MTT assay. Type of test: functional, cell-based. Conditions: HCT-116, 48 h.
For the compound `N#CC1=C(N)Oc2c(c3nc4ccccc4nc3c3ccccc23)C12C(=O)N(Cc1cnnn1-c1ccc(S(N)(=O)=O)cc1)c1ccccc12` (configuration not stated), half-maximal inhibition (IC50) was put at 31.2 µM.
The same measure, in the same setting: next, `CCOc1ccc(-n2nncc2CN2C(=O)C3(C(C#N)=C(N)Oc4c3c3nc5ccccc5nc3c3ccccc43)c3ccccc32)cc1` (configuration not stated): over 50 µM; `N#CC1=C(N)Oc2c(N)cc3nc4ccccc4nc3c2C12C(=O)N(Cc1cnnn1-c1ccc([N+](=O)[O-])cc1[N+](=O)[O-])c1ccccc12` (configuration not stated): 23.9 µM; `COc1ccccc1-n1nncc1CN1C(=O)C2(C(C#N)=C(N)Oc3c2c2nc4ccccc4nc2c2ccccc32)c2ccccc21` (configuration not stated): over 50 µM.
In the case of `N#CC1=C(N)Oc2c(c3nc4ccccc4nc3c3ccccc23)C12C(=O)N(Cc1cnnn1-c1ccccc1Br)c1ccccc12` (configuration not stated), the IC50 is over 50 µM.
On the same count and under the same terms, next, `N#CC1=C(N)Oc2c(c3nc4ccccc4nc3c3ccccc23)C12C(=O)N(Cc1cnnn1-c1ccc(Br)cc1)c1ccccc12` (configuration not stated): over 50 µM.
The same measure, in the same setting: under `N#CC1=C(N)Oc2c(c3nc4ccccc4nc3c3ccccc23)C12C(=O)N(Cc1cnnn1-c1ccc([N+](=O)[O-])cc1)c1ccccc12` (configuration not stated) stands over 50 µM.

In a further test the test system is L02. In words: Antiproliferative activity against human L02 cells after 48 hrs by MTT assay. It counts as cell-based. Conditions: L02, 48 h.
Regarding `N#CC1=C(N)Oc2c(c3nc4ccccc4nc3c3ccccc23)C12C(=O)N(Cc1cnnn1-c1ccc(S(N)(=O)=O)cc1)c1ccccc12` (configuration not stated), the IC50 was over 50 µM.
On the same count and under the same terms, next, `CCOc1ccc(-n2nncc2CN2C(=O)C3(C(C#N)=C(N)Oc4c3c3nc5ccccc5nc3c3ccccc43)c3ccccc32)cc1` (configuration not stated): over 50 µM; `N#CC1=C(N)Oc2c(N)cc3nc4ccccc4nc3c2C12C(=O)N(Cc1cnnn1-c1ccc([N+](=O)[O-])cc1[N+](=O)[O-])c1ccccc12` (configuration not stated): 22.8 µM.
In the case of `COc1ccccc1-n1nncc1CN1C(=O)C2(C(C#N)=C(N)Oc3c2c2nc4ccccc4nc2c2ccccc32)c2ccccc21` (configuration not stated), the IC50 is over 50 µM.
With `N#CC1=C(N)Oc2c(c3nc4ccccc4nc3c3ccccc23)C12C(=O)N(Cc1cnnn1-c1ccccc1Br)c1ccccc12` (configuration not stated), the IC50 was over 50 µM.
The same measure, in the same setting: next, `N#CC1=C(N)Oc2c(c3nc4ccccc4nc3c3ccccc23)C12C(=O)N(Cc1cnnn1-c1ccc(Br)cc1)c1ccccc12` (configuration not stated): over 50 µM.
Still for that read-out and setting: under `N#CC1=C(N)Oc2c(c3nc4ccccc4nc3c3ccccc23)C12C(=O)N(Cc1cnnn1-c1ccc([N+](=O)[O-])cc1)c1ccccc12` (configuration not stated) stands over 50 µM.

The next test has as its system HepG2. In words: Antiproliferative activity against human HepG2 cells after 48 hrs by MTT assay. It counts as functional, cell-based. Conditions: HepG2, 48 h.
The compound `N#CC1=C(N)Oc2c(c3nc4ccccc4nc3c3ccccc23)C12C(=O)N(Cc1cnnn1-c1ccc(S(N)(=O)=O)cc1)c1ccccc12` (configuration not stated) registered a 50% inhibitory concentration (IC50) of 42.2 µM.
Still for that read-out and setting: under `CCOc1ccc(-n2nncc2CN2C(=O)C3(C(C#N)=C(N)Oc4c3c3nc5ccccc5nc3c3ccccc43)c3ccccc32)cc1` (configuration not stated) stands over 50 µM; under `N#CC1=C(N)Oc2c(N)cc3nc4ccccc4nc3c2C12C(=O)N(Cc1cnnn1-c1ccc([N+](=O)[O-])cc1[N+](=O)[O-])c1ccccc12` (configuration not stated), 18.4 µM.
Still for that read-out and setting: under `COc1ccccc1-n1nncc1CN1C(=O)C2(C(C#N)=C(N)Oc3c2c2nc4ccccc4nc2c2ccccc32)c2ccccc21` (configuration not stated) stands over 50 µM; under `N#CC1=C(N)Oc2c(c3nc4ccccc4nc3c3ccccc23)C12C(=O)N(Cc1cnnn1-c1ccccc1Br)c1ccccc12` (configuration not stated), over 50 µM; under `N#CC1=C(N)Oc2c(c3nc4ccccc4nc3c3ccccc23)C12C(=O)N(Cc1cnnn1-c1ccc(Br)cc1)c1ccccc12` (configuration not stated), over 50 µM.
On the same count and under the same terms, next, `N#CC1=C(N)Oc2c(c3nc4ccccc4nc3c3ccccc23)C12C(=O)N(Cc1cnnn1-c1ccc([N+](=O)[O-])cc1)c1ccccc12` (configuration not stated): over 50 µM.

The values are drawn from ChEMBL document CHEMBL4033663, “Design, combinatorial synthesis and biological evaluations of novel 3-amino-1'-((1-aryl-1H-1,2,3-triazol-5-yl)methyl)-2'-oxospiro[benzo[a] pyrano[2,3-c]phenazine-1,3'-indoline]-2-carbonitrile antitumor hybrid molecules” (Eur J Med Chem, 2017).
